The values that follow come from patent publication US20050136444A1 (priority 2003, published 2005).

Entries after “also recorded” stand apart in the source; their conditions may differ. Where a name gives a salt, the structure may show the parent alone. Read-outs that look alike come from different tables or passages of the source.

The subject of assay [1] is Compound 2616-induced Tactile Allodynia. In words: Compound 2616-induced Tactile Allodynia in naive rats, effect of dPQR. Format: in vivo, rat. Conditions: 10 mg/kg, i.p., 75 min post-injection, vs vehicle; Hydrochloride. The method, then:
To confirm that the pronociceptive actions of Compound 2616 were mediated via NPFF1 receptors we performed a pharmacological experiment where we administered dPQR (Dansyl-Pro-Gln-Arg, a reported NPFF antagonist, custom synthesized by Phoenix Pharmaceuticals) to rats treated with Compound 2616. Baseline paw withdrawal thresholds were obtained in naive rats. Following testing, the rats received either vehicle or Compound 2616 (10 mg/kg, i.p.). […] Half of the rats that received Compound 2616 were then injected with either vehicle or dPQR (30 mg/kg, i.p.).

Assay [2] concerns the target T1, NPFF2b (Homo sapiens, UniProt Q9Y5X5).
T1 construct: expressed in transfected cells; host or cells: HEK-T
The assay is described as follows: cAMP assay in transiently transfected HEK-T cells, NPFF2. Format: cell-based. The settings on record: for EC50: cAMP data, Table 2, HEK-T cells, read-out: NPFF2b pEC50 Mean (converted). The method, then: An assay was established for measuring cAMP in transiently transfected cells that takes advantage of the fact that most cells that are transfected with one gene, can be simultaneously transfected with other genes. Thus, the NPFF1 and NPFF2 receptors were transfected along with a Gs-coupled receptor (EP2) at a ratio of 5:1.
This set up was routinely used for the transfection of HEK-T cells with NPFF1 and NPFF2 receptors. […] Cells were incubated for 15 minutes at 37° C. At the end of incubation, cells were lysed and the remainder of the assay performed as per DiscoveRx protocol.
(§1) Cells were incubated for another 15 minutes at 37° C. following which the cells were lysed and processed as per kit protocol.

Assay [3] addresses NPFF1 (Homo sapiens, UniProt Q9GZQ6). In words: cAMP assay in transiently transfected HEK-T cells, NPFF1. Format: cell-based. On the set-up: expressed in transfected cells. Conditions: for Emax: HEK-T cell, read-out: NPFF1 % Efficacy Mean; for EC50: read-out: NPFF1 pEC50 Mean (converted).
Source text: An assay was established for measuring cAMP in transiently transfected cells that takes advantage of the fact that most cells that are transfected with one gene, can be simultaneously transfected with other genes. Thus, the NPFF1 and NPFF2 receptors were transfected along with a Gs-coupled receptor (EP2) at a ratio of 5:1. […] Improvement was also detected in the sensitivity of the assay in some cases when cells are co-transfected with AC5 at ½-⅕ of the amount of DNA of the Gi-coupled receptor studied.
This set up was routinely used for the transfection of HEK-T cells with NPFF1 and NPFF2 receptors. After 48 hours the cAMP assay was set up using DiscoveRx assay protocol with transfected cells in suspension in the presence of varying concentrations of the NPFF ligands and 300 nM of […] in white bottom plates. Cells were incubated for 15 minutes at 37° C. At the end of incubation, cells were lysed and the remainder of the assay performed as per DiscoveRx protocol.
as §1

The subject of assay [4] is 52° C. Water Tail Flick Test. In words: 52° C. Water Tail Flick Test, intrathecal administration. Format: in vivo, rat. Conditions: rats, morphine 3, 10, 30 μg, NPFF 100 μg, 1045 11.6 or 115.5 μg, 1DME 5.6, 55.6 or 556.0 μg. How it is done:
Rats were implanted with chronically indwelling intrathecal catheters (PE-10; 7.5 cm) allowing for the delivery of compounds to the lumbar spinal cord. As a positive control, rats were treated with various doses of morphine (3, 10 and 30 μg).
Rats were implanted with chronically indwelling intrathecal catheters (PE-10; 7.5 cm) allowing for the delivery of compounds to the lumbar spinal cord.
Rats were implanted with chronically indwelling intrathecal catheters (PE-10; 7.5 cm) allowing for the delivery of compounds to the lumbar spinal cord. In order to rule out the possibility that the lack of antinociception produced by NPFF was due to the degradation of the peptide we administered 1DME (a stable NPFF analog).

For assay [5], the system named is Carrageenan-induced Thermal Hyperalgesia. In words: Carrageenan-induced Thermal Hyperalgesia (hot plate). Format: in vivo, rat. The settings on record: for hot plate latencies in vehicle-treated (no carrageenan) rats: 10 mg/kg; for calculated A50, reversal of thermal hyperalgesia: 95% CI; for reversal of carrageenan-induced thermal hyperalgesia: rats, 1, 3 and 10 mg/kg, hot plate. The method, then:
Naive male Sprague-Dawley rats (175-200 g) were assessed for their responsiveness to a noxious thermal stimulus. Response latencies were measured using the hot plate test. Rats were placed in a plexiglass enclosure on a thermostatically controlled metal plate maintained at 52° C. […] Following testing, an animal model of acute inflammatory pain was created by injecting 100 μl of 2% λ-carrageenan ion to a hind paw. Three hours after carrageenan injection, hot plate latencies were again obtained. A significant reduction in the hot plate latency was interpreted as the presence of thermal hyperalgesia. Rats were injected with compound or vehicle and then tested at various time-points following drug administration. Data were converted to % Maximum Possible Effect (% MPE) by the formula, % MPE=((test-post-inflammatory)/(naive-post-inflammatory))*100, where the test score is the hot plate latency obtained after compound administration, the post-inflammatory score is the average response obtained 3 hr post-carrageenan, and the naive score is the average response obtained prior to manipulation. Additionally, paw thickness was measured (with a micrometer) following testing in order to quantify edema. Although none of the compounds tested reversed carrageenan-induced edema formation (data not shown), these compounds produced a dose-related reversal of carrageenan-induced thermal hyperalgesia.
Rats were injected (i.paw.) with 100 μl of 2% carrageenan or vehicle (dH2O) in order to produce a state of acute inflammatory pain. […] Rats were then treated with various doses of Compound 1045 (1, 3 and 10 mg/kg, i.p.) and hot plate latencies were tested across a period of 3 hours.
Rats were injected (i.paw.) with 100 μl of 2% carrageenan or vehicle (dH2O) in order to produce a state of acute inflammatory pain.
Rats were injected (i.paw.) with 100 μl of 2% carrageenan or vehicle (dH2O) in order to produce a state of acute inflammatory pain. […] Rats were then treated with various doses of Compound 3099 (1, 3 and 10 mg/kg, i.p.) and hot plate latencies were tested across a period of 3 hours.

The test system of assay [6] is formalin-induced flinching. In words: Formalin Flinching. Format: in vivo, rat. Conditions: rats, 10 mg/kg i.p. 15 min prior to formalin. How it is done: Naive male Sprague-Dawley rats (175-200 g) were injected with a test compound followed by an injection of 50 μl of a 5.0% formalin solution into the dorsal surface of a hind paw and then placed in individual plastic cages for observation. The number of nociceptive responses (i.e., paw flinches/licks/bites) was counted for a period of 60 min following formalin injection. […] Compounds were administered 15 min prior to formalin injection. The results are depicted in FIG. 4.
A model of tonic pain was created in rats by administering an injection of 5.0% formalin solution (50 μl) into the dorsal surface of a hind paw and then placing the rat in an individual plastic cage for observation. Paw flinches/licks/bites are counted for a period of 60 min. Rats received either vehicle or Compound 3099 (10 mg/kg, i.p.) 15 min prior to the formalin injection. […] This finding is consistent with our previous data.
A model of tonic pain was created in rats by administering an injection of 5.0% formalin solution (50 μl) into the dorsal surface of a hind paw and then placing the rat in an individual plastic cage for observation. Paw flinches/licks/bites are counted for a period of 60 min. […] This finding is consistent with our previous data.

Where [7] appears, read: cAMP data, Table 2, HEK-T cells.

Chain of NPFF1 (Q9GZQ6 whole entry, species assumed): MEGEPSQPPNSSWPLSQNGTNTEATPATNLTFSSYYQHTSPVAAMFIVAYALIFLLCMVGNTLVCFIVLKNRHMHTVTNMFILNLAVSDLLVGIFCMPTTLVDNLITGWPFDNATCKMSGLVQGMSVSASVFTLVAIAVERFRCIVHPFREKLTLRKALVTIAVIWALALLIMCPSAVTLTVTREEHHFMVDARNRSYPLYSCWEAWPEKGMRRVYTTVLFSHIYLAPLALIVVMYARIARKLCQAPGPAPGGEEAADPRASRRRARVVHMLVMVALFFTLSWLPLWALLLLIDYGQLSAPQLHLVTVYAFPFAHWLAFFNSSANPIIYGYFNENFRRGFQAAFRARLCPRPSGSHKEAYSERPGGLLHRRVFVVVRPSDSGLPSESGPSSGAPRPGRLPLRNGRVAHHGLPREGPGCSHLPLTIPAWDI
T1 sequence (Q9Y5X5 103-522 limits assumed): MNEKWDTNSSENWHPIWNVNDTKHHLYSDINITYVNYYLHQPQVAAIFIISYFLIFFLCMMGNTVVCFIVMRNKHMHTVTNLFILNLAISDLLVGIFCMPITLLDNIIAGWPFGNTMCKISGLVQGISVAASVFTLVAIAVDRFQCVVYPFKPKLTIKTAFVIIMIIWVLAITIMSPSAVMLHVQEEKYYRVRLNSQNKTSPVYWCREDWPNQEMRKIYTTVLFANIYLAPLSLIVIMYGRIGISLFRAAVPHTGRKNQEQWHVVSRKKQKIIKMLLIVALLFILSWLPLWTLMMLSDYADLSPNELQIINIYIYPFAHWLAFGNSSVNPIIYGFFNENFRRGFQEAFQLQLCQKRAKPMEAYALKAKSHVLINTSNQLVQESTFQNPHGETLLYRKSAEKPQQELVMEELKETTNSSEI

For the compound `NC(N)=NN=Cc1ccc(-c2ccccc2C(F)(F)F)o1` (racemic) [Compound 2616, 1-[(5-(2-(Trifluoromethyl)phenyl)-furan-2-yl)-methyleneamino]guanidine Hydrochloride], the “paw withdrawal thresholds / tactile sensitivity of naive rats” value in assay [1] was “markedly decreased; also recorded: resulted in an increased sensitivity to innocuous tactile stimulation”. For the same compound, the Emax in assay [2] (HEK-T cell, read-out: NPFF2b % Efficacy Mean) turned out to be 114%; in assay [3], 93%. The EC50 in assay [2] is 3.16 µM; in assay [3] (setting [7]), 1.26 µM.
In the case of `NC(N)=N/N=C/c1ccc(Cl)c(Cl)c1` [Compound 1045, 1-(3,4-Dichlorobenzylideneamino)guanidine Hydrochloride], the “antinociception in 52° C. water tail flick test” value in assay [4] is reported as “failed to elicit antinociception”. Further, the “hot plate latencies in vehicle-treated (no carrageenan) rats” value in assay [5] is “did not significantly alter sensitivity to noxious thermal stimulation”. Moreover, in assay [5] (carrageenan-treated rats, i.p.), the “maximum efficacy, reversal of thermal hyperalgesia” value is 57.6% and the “calculated A50, reversal of thermal hyperalgesia” value is recorded as 7.8 mg/kg. Moreover, the “reversal of carrageenan-induced thermal hyperalgesia” value in assay [5] (i.p.) was “dose-related reversal of thermal hyperalgesia”. The “carrageenan-induced edema formation in the hind paw” value in assay [5] (rats, paw thickness) is listed as “did not significantly alter edema formation”.
As for `Cl.N=C(N)N/N=C/c1ccc(Br)c(Br)c1` [Compound 3093, 1-(3,4-Dibromobenzylideneamino)guanidine Hydrochloride], the EC50 in assay [2] is 6.31 µM. Besides, in assay [6] (0-10 min post-formalin), the “formalin-induced flinching, phase I” value is “inactive”. The “inhibition of formalin-induced flinching, phase II” value in assay [6] (15-60 min post-formalin) was roughly 62.1 % inhibition. In addition, the “hot plate latencies in vehicle-treated (no carrageenan) rats” value in assay [5] is recorded as “did not significantly alter the hot plate latencies”. In assay [5] (carrageenan-treated rats, i.p.), the “time of peak effect after administration” value was in the range of 30 to 60 min and the “calculated A50, reversal of thermal hyperalgesia” value was 1.6 mg. In assay [5] (i.p.), the “reversal of carrageenan-induced thermal hyperalgesia” value is recorded as “dose-related reversal of thermal hyperalgesia”. In assay [3] (setting [7]), the Emax came out at 23% and the EC50 was 15.8 µM.
